Data published in patent publication US20240376100A1 (Redona Therapeutics, Inc., priority 2021, published 2024).

Target: PAPD5 enzyme (Homo sapiens, UniProt Q8NDF8)
Test: PAPD5 assay (AMP incorporation onto 3'-terminus of RNA substrate, fluorescence quench)
Assay type: biochemical
Settings: PAPD5 protein 0.3 nM, ATP 50 μM, 30 minutes preincubation, room temperature; read-out: Potency PAPD5 IC50
Outline: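 Enzyme at 0.3 nM with 50 μM ATP, pH 7.3 HEPES buffer, preincubated with compound 30 minutes at room temperature; 5 nM 5′-fluorescein RNA substrate and 20 nM TAMRA quench probe then added. Initial rates from kinetic fluorescein decrease over ~90 minutes; IC50 by four-parameter fit.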

PAPD5 enzyme, sequence (Q8NDF8 whole entry): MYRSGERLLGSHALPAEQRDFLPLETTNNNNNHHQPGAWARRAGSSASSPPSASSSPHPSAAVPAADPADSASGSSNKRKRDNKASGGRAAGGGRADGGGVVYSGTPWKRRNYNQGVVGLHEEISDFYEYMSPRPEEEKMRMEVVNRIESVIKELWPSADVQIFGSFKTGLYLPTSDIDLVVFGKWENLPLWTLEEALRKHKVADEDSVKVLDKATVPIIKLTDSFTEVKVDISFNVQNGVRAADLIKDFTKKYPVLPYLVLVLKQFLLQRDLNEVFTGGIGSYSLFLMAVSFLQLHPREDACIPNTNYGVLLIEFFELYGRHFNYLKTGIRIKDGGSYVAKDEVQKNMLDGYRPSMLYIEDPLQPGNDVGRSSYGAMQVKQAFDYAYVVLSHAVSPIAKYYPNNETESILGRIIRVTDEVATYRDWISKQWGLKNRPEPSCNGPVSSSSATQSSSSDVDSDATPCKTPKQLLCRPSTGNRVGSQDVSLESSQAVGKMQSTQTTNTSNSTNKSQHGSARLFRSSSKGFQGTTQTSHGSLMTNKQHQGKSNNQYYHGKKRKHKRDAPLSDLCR

IC50 [µM]	Compound
≤ 1	Nc1ccc(-n2cc(C(=O)O)c(=O)c3cc(F)c(N4Cc5ccccc5C4)cc32)cn1 [Example 195, 1-(6-aminopyridin-3-yl)-6-fluoro-7-(isoindolin-2-yl)-4-oxo-1,4-dihydroquinoline-3-carboxylic acid]
≤ 1	Cc1cc(N)ncc1-n1cc(C(=O)O)c(=O)c2cc(Cl)c(N3CCc4cnccc4C3)nc21 [Example 197, 1-(6-amino-4-methylpyridin-3-yl)-6-chloro-7-(3,4-dihydro-2,6-naphthyridin-2(1H)-yl)-4-oxo-1,4-dihydro-1,8-naphthyridine-3-carboxylic acid]
≤ 1	Cc1cc(N)ncc1-n1cc(C(=O)O)c(=O)c2cc(Cl)c(N3CCc4ncncc4C3)nc21 [Example 198, 1-(6-amino-4-methylpyridin-3-yl)-6-chloro-7-(7,8-dihydropyrido[4,3-d]pyrimidin-6(5H)-yl)-4-oxo-1,4-dihydro-1,8-naphthyridine-3-carboxylic acid]
≤ 1	CCCc1cc(N)ncc1-n1cc(C(=O)O)c(=O)c2cc(Cl)c(N3Cc4cccnc4C3)cc21 [Example 199, 1-(6-amino-4-propylpyridin-3-yl)-6-chloro-7-(5,7-dihydro-6H-pyrrolo[3,4-b]pyridin-6-yl)-4-oxo-1,4-dihydroquinoline-3-carboxylic acid]
≤ 1	Cc1cc(NS(C)(=O)=O)ncc1-n1cc(C(=O)O)c(=O)c2cc(Cl)c(N3Cc4cccnc4C3)nc21 [Example 200, 6-chloro-7-(5,7-dihydro-6H-pyrrolo[3,4-b]pyridin-6-yl)-1-(4-methyl-6-(methylsulfonamido)pyridin-3-yl)-4-oxo-1,4-dihydro-1,8-naphthyridine-3-carboxylic acid]
≤ 1	O=C(O)c1cn(-c2cnc(N3CCC3)cn2)c2cc(N3Cc4cccnc4C3)c(Cl)cc2c1=O [Example 201, 1-(5-(azetidin-1-yl)pyrazin-2-yl)-6-chloro-7-(5,7-dihydro-6H-pyrrolo[3,4-b]pyridin-6-yl)-4-oxo-1,4-dihydroquinoline-3-carboxylic acid]

Compound	IC50 [µM]
Cc1cc(NC(=O)OC(C)(C)C)ncc1-n1cc(C(=O)O)c(=O)c2cc(Cl)c(N3CCc4cnccc4C3)nc21 [Example 196, 1-(6-((tert-butoxycarbonyl)amino)-4-methylpyridin-3-yl)-6-chloro-7-(3,4-dihydro-2,6-naphthyridin-2(1H)-yl)-4-oxo-1,4-dihydro-1,8-naphthyridine-3-carboxylic acid]	≤ 1
